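Protocol summary: plate cells (96-well), add compound at 5 concentrations, incubate 48 h, interpolate endpoints linearly. TGI is the concentration that stops growth completely.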

The values that follow come from PubChem BioAssay (NCI).

Test systems include SF-539 CNS; K-562 leukemia; UACC-257 melanoma; ACHN renal; SK-OV-3 ovarian; M14 melanoma; OVCAR-3 ovarian; LOX IMVI melanoma; SNB-75 CNS.
What all share (test): NCI-60 cell line screen, 48 h

As to `COC(=O)C(I(OS(=O)(=O)c1ccc(C)cc1)c1ccccc1)=P(c1ccccc1)(c1ccccc1)c1ccccc1`, the TGI with SF-539 CNS was 34.9 µM; with K-562 leukemia, above 100 µM; in the experiment with UACC-257 melanoma, 37.1 µM; with ACHN renal, 32.6 µM; with SK-OV-3 ovarian, 52.4 µM; in the experiment with M14 melanoma it was 32.4 µM. The TGI in the experiment with OVCAR-3 ovarian was found to be 33.4 µM.

Regarding `Cc1ccc(-n2cc(-c3ccc(Cl)cc3)c3c(NNC(=S)NCc4ccccc4)ncnc32)cc1`, the TGI in the experiment with SF-539 CNS is 30.7 µM; in the experiment on K-562 leukemia, above 100 µM; in the experiment with UACC-257 melanoma, 48 µM; in the experiment with ACHN renal, above 100 µM; in the experiment with SK-OV-3 ovarian it was 82 µM; in the experiment on LOX IMVI melanoma it was 22.8 µM. Besides, the TGI in the experiment with M14 melanoma was determined as 37.6 µM; with OVCAR-3 ovarian, 37.4 µM.

With `COC[C@H](Cc1ccccc1)N=Cc1ccccc1`, the TGI in the experiment with K-562 leukemia, with SNB-75 CNS, in the experiment with UACC-257 melanoma, with ACHN renal, with SK-OV-3 ovarian and in the experiment on LOX IMVI melanoma was above 100 µM in each case. In the experiment with M14 melanoma, this molecule gave a TGI above 100 µM.

For the molecule `Clc1ccc(CCN2CCN(CCCc3ccccc3)CC2)cc1Cl`, the TGI in the experiment with SF-539 CNS was 32.4 µM; with K-562 leukemia it was above 100 µM; in the experiment on UACC-257 melanoma, 31.3 µM; in the experiment with ACHN renal it was 39.4 µM; with SK-OV-3 ovarian it was 35.1 µM; with LOX IMVI melanoma, 31.5 µM. The results for the TGI in the experiment on M14 melanoma and in the experiment with OVCAR-3 ovarian were 28.1 µM and 30.9 µM, respectively.

On to `O=c1[nH]/c(=C/c2ccc(OCc3ccccc3)cn2)c(=O)[nH]/c1=C/c1cccnc1`, for which the TGI with SNB-75 CNS was 36.8 µM; with UACC-257 melanoma, above 100 µM; in the experiment on ACHN renal, above 100 µM; in the experiment on SK-OV-3 ovarian, above 100 µM; in the experiment on LOX IMVI melanoma, above 100 µM; with M14 melanoma, above 22.8 µM.

`CCC(c1ccc(N(C)C)cc1)C1NC(=S)NC1=O` (configuration not stated): the TGI was above 100 µM in the experiment on SF-539 CNS; 59.6 µM with K-562 leukemia; above 100 µM in the experiment with SNB-75 CNS; above 100 µM in the experiment with UACC-257 melanoma; above 100 µM in the experiment on ACHN renal; above 100 µM in the experiment with SK-OV-3 ovarian. Further, the TGI in the experiment on LOX IMVI melanoma and in the experiment on M14 melanoma was above 100 µM each time.

In the case of `CC(C)(C)OC(=O)NCCNC(=O)OCc1ccccc1`, the TGI in the experiment on SF-539 CNS, with K-562 leukemia, in the experiment on SNB-75 CNS, in the experiment with UACC-257 melanoma, in the experiment with ACHN renal and in the experiment on SK-OV-3 ovarian was above 100 µM throughout. The TGI in the experiment on M14 melanoma and with OVCAR-3 ovarian was above 100 µM in each case.

As to `CCCCCCCCCCCCCCCCCc1nc(C#N)c(N)o1`, the TGI was above 100 µM in the experiment on K-562 leukemia; 70.2 µM in the experiment on SNB-75 CNS; above 100 µM with UACC-257 melanoma; above 100 µM in the experiment with ACHN renal; above 100 µM with SK-OV-3 ovarian; above 100 µM in the experiment on LOX IMVI melanoma. Further, the TGI with M14 melanoma was above 100 µM.

`COc1nc(NC2OCC(OC(C)=O)C(OC(C)=O)C2OC(C)=O)c(N=C(C)C(C)=O)c(=O)n1C` (configuration not stated): the TGI in the experiment with SF-539 CNS, in the experiment with K-562 leukemia, in the experiment with SNB-75 CNS, with UACC-257 melanoma, in the experiment on ACHN renal and with LOX IMVI melanoma was above 100 µM in each case. This molecule also returned a TGI with M14 melanoma above 100 µM.

Regarding `COc1ccc(/C=N/NC(=O)c2ccccc2Nc2ccccc2C(=O)N/N=C/c2ccc(OC)c(OC)c2)cc1OC`, the TGI in the experiment on K-562 leukemia, in the experiment with SNB-75 CNS, with UACC-257 melanoma, with ACHN renal, in the experiment on SK-OV-3 ovarian and in the experiment with M14 melanoma was above 100 µM throughout. In the experiment on OVCAR-3 ovarian, the TGI was above 100 µM.

Turning to `CCCCCCc1cc2cc(C(=O)Nc3cccc(C(F)(F)F)c3)c(=N)oc2cc1O`, the TGI in the experiment with SF-539 CNS was 3.59 µM; with SNB-75 CNS, 3.01 µM; in the experiment on UACC-257 melanoma it was 8.95 µM; with ACHN renal, above 34.7 µM; in the experiment on SK-OV-3 ovarian it was 10.1 µM; in the experiment with LOX IMVI melanoma it was 3.09 µM. Further, the figures for the TGI in the experiment on M14 melanoma and in the experiment on OVCAR-3 ovarian were 6.18 µM and 10.7 µM, respectively.

In the case of `CCOC(=O)C1C(=O)C=C(c2cc(C)ccc2O)CC1c1cccc(Br)c1` (configuration not stated), the TGI worked out at 35.2 µM in the experiment on SF-539 CNS; 46.8 µM with K-562 leukemia; 38 µM in the experiment on UACC-257 melanoma; 42.2 µM in the experiment with ACHN renal; 43.1 µM in the experiment with SK-OV-3 ovarian; 32.1 µM with LOX IMVI melanoma. Besides, the TGI in the experiment on M14 melanoma came to 37 µM; in the experiment with OVCAR-3 ovarian it was 84.8 µM.

As for `Cc1cc(C)n(CN(Cn2nc(C)cc2C)c2ccc(N(Cn3nc(C)cc3C)Cn3nc(C)cc3C)cc2)n1`, the TGI is 35.3 µM in the experiment with SF-539 CNS; 50.3 µM in the experiment with K-562 leukemia; 40.6 µM with UACC-257 melanoma; 38.2 µM in the experiment on ACHN renal; 75.2 µM in the experiment with SK-OV-3 ovarian; 36.5 µM with M14 melanoma. In the experiment with OVCAR-3 ovarian, this molecule had a TGI of 49.3 µM.

Consider `COc1ccc2[nH]c3c(C)c4ccnc(NCCCN(C)CCCNC(=O)NCCCN(C)CCCNc5nccc6c(C)c7[nH]c8ccc(OC)cc8c7c(C)c56)c4c(C)c3c2c1`, for which the TGI with SF-539 CNS is 1.18 µM; in the experiment with K-562 leukemia it was above 50 µM; with SNB-75 CNS, 1.56 µM; with UACC-257 melanoma it was above 14.3 µM; in the experiment on ACHN renal, 2.8 µM; in the experiment with SK-OV-3 ovarian, above 18.4 µM. Moreover, the TGI in the experiment on M14 melanoma amounted to 1.33 µM; in the experiment with OVCAR-3 ovarian, 8.29 µM.

Turning to `COc1cccc2c(NNc3ccc(Cl)cc3)c3ccc([N+](=O)[O-])cc3nc12`, the TGI in the experiment with SF-539 CNS is 33 µM; with K-562 leukemia, 97.2 µM; in the experiment with UACC-257 melanoma, 55.2 µM; in the experiment with ACHN renal it was 22.4 µM; in the experiment with SK-OV-3 ovarian, 32.5 µM; in the experiment on LOX IMVI melanoma it was 36.1 µM. For the same molecule, the TGI in the experiment with M14 melanoma turned out to be 41.6 µM; in the experiment with OVCAR-3 ovarian it was 36.3 µM.

As for `CSc1nc(Cl)c2c(n1)Sc1ncnn1C2O` (configuration not stated), the TGI with SF-539 CNS is 15.5 µM; in the experiment with K-562 leukemia, 30.6 µM; with UACC-257 melanoma it was 45.7 µM; in the experiment on ACHN renal, 15.4 µM; in the experiment with SK-OV-3 ovarian it was 42.2 µM; in the experiment on LOX IMVI melanoma, 21.1 µM. Besides, the TGI in the experiment with M14 melanoma was 29 µM; in the experiment on OVCAR-3 ovarian, 20.1 µM.

For the molecule `COc1cc(C=Nc2ccc(Oc3ccc(Cl)cc3)c(Cl)c2)cc(OC)c1OC`, the TGI came to 35.2 µM in the experiment with SF-539 CNS; 57.9 µM in the experiment with SNB-75 CNS; 47.7 µM in the experiment on UACC-257 melanoma; 83.8 µM in the experiment with ACHN renal; 32.2 µM in the experiment with LOX IMVI melanoma; 58.2 µM in the experiment on M14 melanoma. Besides, in the experiment on OVCAR-3 ovarian, the TGI stood at 48.4 µM.
